Results taken from patent US20250295654A1, “METHODS OF TREATING METABOLIC DISEASES WITH FUSED BICYCLIC PYRAZOLES” (Belite Bio, Inc, priority 2019, published 2025).
Where “and” joins values, the source holds several entries; their conditions need not be identical. Identical values can stand only once. Marks after values point to notes of the source that are not given here.

Key:
Assay type in all cases: in vivo
[1] = Compound 2 single dose rat PK study; conditions: male Sprague Dawley rats, single iv dose 2 mg/kg; for Tmax: first plasma collection time or observed time of highest plasma concentration
Procedure: A pharmacokinetic study of Compound 2 following a single intravenous or oral dose administration to male Sprague Dawley rats was conducted, the results of which are found in Table 5 and FIGS. 21-24.

[2] = Compound 1 single dose rat PK study; conditions: male Sprague Dawley rats, single iv dose 2 mg/kg, first plasma collection time listed as Tmax
Procedure: A pharmacokinetic study of Compound 1 following a single intravenous or oral dose administration to male Sprague Dawley rats was conducted, the results of which are found in Table 3 and FIGS. 9-14.

[3] = Compound 1 single dose mouse PK study; conditions: male CD-1 mice, single iv dose 2 mg/kg; first plasma collection time
Procedure: A pharmacokinetic study of Compound 1 following a single intravenous or oral dose administration to male CD-1 mice was conducted, the results of which are found in Table 4 and FIGS. 15-20.

| Tmax ([1]; Mean) | AUCinf ([1]; individual rat, 2 mg/kg) | Cl ([1]; individual rat, 2 mg/kg) | Tmax ([1]; individual rat, 2 mg/kg) | Tmax ([2]; Mean) | Tmax ([2]; individual rat) | Tmax [3] | Structure (SMILES) |
| --- | --- | --- | --- | --- | --- | --- | --- |
| 13.3 min | 4027 ng·h/mL and 5052 ng·h/mL | 4.13 mL/min/kg and 3.3 mL/min/kg | 4.98 min |  |  |  | CC(=O)N1Cc2[nH]nc(C(=O)N3CCC(c4ccc(F)c(F)c4C(F)(F)F)CC3)c2C1 [Compound 2, 1-(3-(4-(3,4-difluoro-2-(trifluoromethyl)phenyl)piperidine-1-carbonyl)-4,6-dihydropyrrolo[3,4-c]pyrazol-5(1H)-yl)ethan-1-one] |
|  |  |  |  | 4.98 min | 4.98 min | 0.083^b hr | CC(=O)N1CCc2c(C(=O)N3CCC(c4ccc(F)c(F)c4C(F)(F)F)CC3)n[nH]c2C1 [Compound 1, 1-(3-(4-(3,4-difluoro-2-(trifluoromethyl)phenyl)piperidine-1-carbonyl)-1,4,5,7-tetrahydro-6H-pyrazolo[3,4-c]pyridin-6-yl)ethan-1-one] |
